Entries after “also recorded” stand apart in the source; their conditions may differ. Like-named read-outs stand apart in the source and are kept apart here.
Legend:
[1] = test system: drop seizures in patients with Lennox-Gastaut Syndrome; details: Phase 3 studies, versus placebo; cited from earlier work
[2] = clinical; details: human, plasma, oral
[3] = for CL/F Mean / Cav Mean / Ctrough Mean: healthy subjects
[4] = multiple ascending dose study with healthy subjects: safety and tolerability; assay type: in vivo, human
[5] = test system: prolactin; experiment: multiple ascending dose study with healthy subjects: prolactin pharmacodynamics; assay type: in vivo, human; details: multiple doses TID
Method: Prolactin serum concentrations were summarized by timepoint, dose and part. Absolute and percent change from baseline in prolactin value was calculated, with predose value on Day 1 considered as the baseline value. Observed prolactin data, absolute and percent change from baseline versus time were plotted.

[6] = test system: prolactin; experiment: single ascending dose study with healthy subjects: prolactin pharmacodynamics; assay type: in vivo, human; details: single doses
[7] = single ascending dose study with healthy subjects: pharmacokinetics
[8] = clinical; details: human; for CL renal: plasma and urine; for half-life / Cmax / Tmax / AUC(0-inf) / Vd/F: plasma
[9] = single ascending dose study with healthy subjects: safety and tolerability; assay type: in vivo, human; details: single doses 1 to 24 mg
[10] = 3 mg TID, no titration, 14 days
[11] = 6 mg TID, no titration, 14 days
[12] = 12 mg TID, no titration, 14 days
[13] = 18 mg TID, no titration, 14 days
[14] = multiple doses TID, healthy subjects

## CCNC(C)Cc1cccc(C(F)(F)F)c1 (stereo not shown) [fenfluramine]
[1]
  reduction of the frequency of drop seizures: superior to placebo

## C[C@H]1CN2CCNCc3ccc(C(=O)NCC(F)F)c1c32 [Compound 1, (R)-N-(2,2-difluoroethyl)-7-methyl-1,2,3,4,6,7-hexahydro-[1,4]diazepino[6,7,1-hi]indole-8-carboxamide]
[2]
  Tmax: 1 to 2 h
[2]; 3 mg TID
  AUC: 27.1 ng·h/mL
  AUC(0-inf): 46.1 ng·h/mL
  AUC(0-t): 38.6 ng·h/mL
  Cmax: 6.61 ng/mL
  Tmax: 1.01 h
  half-life: 5.56 h
[2]; 6 mg TID
  AUC: 99.8 ng·h/mL
  AUC(0-inf): 152 ng·h/mL
  AUC(0-t): 150 ng·h/mL
  Cmax: 20.7 ng/mL
  Tmax: 1.78 h
  half-life: 4.81 h
[2]; 12 mg TID
  AUC: 213 ng·h/mL
  AUC(0-inf): 330 ng·h/mL
  AUC(0-t): 327 ng·h/mL
  Cmax: 44.9 ng/mL
  Tmax: 1.27 h
  half-life: 5.96 h
[2]; 18 mg TID
  AUC: 480 ng·h/mL
  AUC(0-inf): 775 ng·h/mL
  AUC(0-t): 773 ng·h/mL
  Cmax: 98.6 ng/mL
  Tmax: 2 h
  half-life: 5.64 h
[2]; 24 mg TID
  AUC: 480 ng·h/mL
  AUC(0-inf): 741 ng·h/mL
  AUC(0-t): 737 ng·h/mL
  Cmax: 107 ng/mL
  Tmax: 1.04 h
  half-life: 6.5 h
[3]; [10]
  CL/F Mean: 125 L/h
  Cav Mean: 3.39 ng/mL
  Ctrough Mean: 1.94 ng/mL
[3]; [11]
  CL/F Mean: 66.6 L/h
  Cav Mean: 12.5 ng/mL
  Ctrough Mean: 7.02 ng/mL
[3]; [12]
  CL/F Mean: 63.1 L/h
  Cav Mean: 26.6 ng/mL
  Ctrough Mean: 15.8 ng/mL
[3]; [13]
  CL/F Mean: 45.9 L/h
  Cav Mean: 60.0 ng/mL
  Ctrough Mean: 37.7 ng/mL
[3]; 24 mg TID, 3-day titration
  CL/F Mean: 62.9 L/h
  Cav Mean: 60.1 ng/mL
  Ctrough Mean: 34.0 ng/mL
[3]; 12/24 mg TID titration regimen
  dose eliminated by the renal route in 48 hours: 12.3%
[3]; TID regimen, listed as Study Drug
  accumulation upon multiple dosing: Significant accumulation; also recorded: dose dependent accumulation
[3]; doses up to 18 mg TID, in most cases
  steady-state achieved by: ≤ 10 days
[3]; first dose and multiple oral doses, powder-in-capsule formulation
  absorption into systemic circulation: rapidly absorbed
[3]; non-titration part
  dosing time after which most subjects were at steady state: 10 days
[4]; after stopping treatment with 24 mg TID
  serious adverse event: One
[4]; forty-three subjects enrolled
  subjects discontinued due to adverse events: Three
[4]; [14]
  most common TEAEs: headache, somnolence, dizziness, dizziness postural, micturition urgency & orthostatic hypotension
  severity of majority of treatment emergent adverse events (TEAEs): mild to moderate
[4]; occurring in 3 subjects, all after cessation of dosing
  severe TEAEs: Five
[5]
  mean percent change from baseline prolactin level at 2 hours: increased with increasing doses from 3 mg to 12 mg and plateaued thereafter
  prolactin: increased in a dose- and concentration-dependent manner, with greater increase seen after first dose
[6]
  prolactin levels by 24-hour postdose: returned to baseline for only the 6 mg dose level
  prolactin mean % CFB at 2 hours: increased in a dose-dependent manner, with a greater than dose proportional increase between 6 mg and 12 mg doses
[6]; within 2 h
  prolactin: increased within 2 h in a dose- and concentration-dependent manner
[7]; single doses 1 to 24 mg
  dose proportionality of peak and total exposure: slightly greater than dose proportional especially at higher doses
[7]; single oral dose, powder in capsule formulation
  absorption into the systemic circulation: rapidly absorbed
[8]; oral, 1 mg
  CL renal: 50 mL/min
  Cmax: 1.08 ng/mL
  Tmax: 1.54 h
[8]; oral, 3 mg
  CL renal: 60.3 mL/min
  AUC(0-inf): 40.9 ng·h/mL
  Cmax: 6.36 ng/mL
  Tmax: 1.02 h
  Vd/F: 608 L
  half-life: 4.94 h
[8]; oral, 6 mg
  CL renal: 57 mL/min
  AUC(0-inf): 58.7 ng·h/mL
  Cmax: 9.52 ng/mL
  Tmax: 1.5 h
  Vd/F: 1230 L
  half-life: 6.66 h
[8]; oral, 12 mg
  CL renal: 70.8 mL/min
  AUC(0-inf): 101 ng·h/mL
  Cmax: 17 ng/mL
  Tmax: 1.25 h
  Vd/F: 929 L
  half-life: 4.67 h
[8]; oral, 24 mg
  CL renal: 62.5 mL/min
  AUC(0-inf): 288 ng·h/mL
  Cmax: 59.3 ng/mL
  Tmax: 1.07 h
  Vd/F: 697 L
  half-life: 5.09 h
[8]; oral
  half-life: 5 to 7 h
[8]; po
  Tmax: 1 to 1.5 h
[9]
  most common treatment emergent adverse events: headache, postural dizziness, and nausea, which were mild to moderate in severity

From US20260174777A1, “METHODS OF TREATMENT” (Arena Pharmaceuticals, Inc., priority 2022, published 2026)
